Like-named read-outs stand apart in the source and are kept apart here.

This is an account of results in patent US10392391B2 (Vertex Pharmaceuticals Incorporated, priority 2012, dated 2019).

For this assay, the target named is ATR kinase (full-length ATR) (Homo sapiens (Human), UniProt Q13535). Kind of assay: ATR inhibition assay (radioactive-phosphate incorporation). It is filed as biochemical. The essentials: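 Ki(app) was fitted by non-linear regression to background-corrected initial rates. Full-length ATR (5 nM) phosphorylated 800 μM peptide using 10 μM [γ-33P]ATP at 25° C in Tris/HCl pH 7.5 buffer with MgCl2, DTT and 7% DMSO. After 10-minute compound pre-incubation and 24-hour reaction, phosphocellulose filters were scintillation counted.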
Sequence of ATR kinase (full-length ATR) (Q13535 whole entry): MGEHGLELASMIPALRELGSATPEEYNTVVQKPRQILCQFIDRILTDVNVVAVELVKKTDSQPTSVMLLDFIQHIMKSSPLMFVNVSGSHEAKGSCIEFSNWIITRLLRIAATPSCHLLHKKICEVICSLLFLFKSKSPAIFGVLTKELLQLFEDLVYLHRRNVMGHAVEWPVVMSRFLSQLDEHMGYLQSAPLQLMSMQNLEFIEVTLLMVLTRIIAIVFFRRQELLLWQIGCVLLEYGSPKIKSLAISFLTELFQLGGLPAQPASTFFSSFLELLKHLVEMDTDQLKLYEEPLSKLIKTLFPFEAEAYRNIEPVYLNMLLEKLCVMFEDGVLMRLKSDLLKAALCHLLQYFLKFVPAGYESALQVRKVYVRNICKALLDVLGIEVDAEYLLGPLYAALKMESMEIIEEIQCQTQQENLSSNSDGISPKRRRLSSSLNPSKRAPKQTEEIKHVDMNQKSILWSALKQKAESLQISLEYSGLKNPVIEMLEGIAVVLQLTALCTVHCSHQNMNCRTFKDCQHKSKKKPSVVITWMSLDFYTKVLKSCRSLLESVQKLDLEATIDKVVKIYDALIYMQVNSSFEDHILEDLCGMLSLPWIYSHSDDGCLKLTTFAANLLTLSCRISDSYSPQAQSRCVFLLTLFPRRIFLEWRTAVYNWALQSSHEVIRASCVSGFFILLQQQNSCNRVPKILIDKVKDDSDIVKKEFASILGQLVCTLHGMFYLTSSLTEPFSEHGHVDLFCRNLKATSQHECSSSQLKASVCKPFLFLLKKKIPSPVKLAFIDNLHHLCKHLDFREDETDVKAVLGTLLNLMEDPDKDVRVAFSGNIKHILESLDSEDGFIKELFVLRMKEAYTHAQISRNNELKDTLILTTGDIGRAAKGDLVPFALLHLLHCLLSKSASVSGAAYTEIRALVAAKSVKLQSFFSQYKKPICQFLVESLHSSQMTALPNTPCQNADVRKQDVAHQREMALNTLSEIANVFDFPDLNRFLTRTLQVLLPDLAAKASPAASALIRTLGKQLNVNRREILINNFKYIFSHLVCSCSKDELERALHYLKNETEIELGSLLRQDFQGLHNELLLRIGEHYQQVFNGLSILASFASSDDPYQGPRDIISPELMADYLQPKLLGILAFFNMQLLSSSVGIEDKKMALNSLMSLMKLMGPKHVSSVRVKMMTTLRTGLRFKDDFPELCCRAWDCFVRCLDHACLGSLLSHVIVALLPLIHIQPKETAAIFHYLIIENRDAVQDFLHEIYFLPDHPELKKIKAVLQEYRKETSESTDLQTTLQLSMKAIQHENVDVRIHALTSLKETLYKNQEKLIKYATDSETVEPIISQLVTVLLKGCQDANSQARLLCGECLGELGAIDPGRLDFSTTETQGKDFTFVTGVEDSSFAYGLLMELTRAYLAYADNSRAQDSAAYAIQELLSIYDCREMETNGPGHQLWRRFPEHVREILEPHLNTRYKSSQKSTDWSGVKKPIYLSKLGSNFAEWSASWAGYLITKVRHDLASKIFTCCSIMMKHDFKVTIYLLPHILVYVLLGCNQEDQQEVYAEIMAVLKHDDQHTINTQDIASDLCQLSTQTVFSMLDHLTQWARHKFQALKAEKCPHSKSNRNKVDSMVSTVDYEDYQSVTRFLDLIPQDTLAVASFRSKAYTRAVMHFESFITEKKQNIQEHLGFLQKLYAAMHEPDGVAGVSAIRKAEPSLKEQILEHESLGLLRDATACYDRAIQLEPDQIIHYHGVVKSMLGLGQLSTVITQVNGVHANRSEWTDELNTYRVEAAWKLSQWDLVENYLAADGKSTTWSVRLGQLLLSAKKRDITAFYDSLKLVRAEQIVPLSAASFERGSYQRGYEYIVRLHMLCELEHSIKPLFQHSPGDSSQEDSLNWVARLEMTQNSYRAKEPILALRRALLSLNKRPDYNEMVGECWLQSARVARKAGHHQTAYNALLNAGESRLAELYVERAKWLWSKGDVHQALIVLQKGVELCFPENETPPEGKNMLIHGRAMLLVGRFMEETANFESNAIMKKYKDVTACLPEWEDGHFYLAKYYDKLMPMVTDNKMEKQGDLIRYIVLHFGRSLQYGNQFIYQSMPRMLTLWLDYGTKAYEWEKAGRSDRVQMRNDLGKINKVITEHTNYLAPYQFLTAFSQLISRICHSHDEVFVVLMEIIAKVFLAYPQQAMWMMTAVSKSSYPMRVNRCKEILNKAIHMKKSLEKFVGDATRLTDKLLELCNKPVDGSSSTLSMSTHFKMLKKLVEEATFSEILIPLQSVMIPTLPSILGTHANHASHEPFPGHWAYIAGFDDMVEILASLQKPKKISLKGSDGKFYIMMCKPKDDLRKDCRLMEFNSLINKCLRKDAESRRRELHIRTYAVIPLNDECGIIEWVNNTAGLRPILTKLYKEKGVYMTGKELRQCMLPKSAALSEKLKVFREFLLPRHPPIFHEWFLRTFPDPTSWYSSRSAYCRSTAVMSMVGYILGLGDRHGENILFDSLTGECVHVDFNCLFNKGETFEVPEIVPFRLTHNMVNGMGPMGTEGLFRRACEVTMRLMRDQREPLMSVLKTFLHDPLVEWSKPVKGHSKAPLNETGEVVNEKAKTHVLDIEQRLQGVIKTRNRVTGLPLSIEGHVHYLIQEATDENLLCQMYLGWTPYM

[1] abbreviates: Ki(app), 5 nM full-length ATR, 10 μM ATP, 25° C.

For `CCN1CCCCC1C(=O)N1CCN(c2c(F)cncc2NC(=O)c2c(N)nn3cc(F)cnc23)CC1` (stereo not drawn) [I-N-204, 2-amino-N-(4-(4-(1-ethylpiperidine-2-carbonyl)piperazin-1-yl)-5-fluoropyridin-3-yl)-6-fluoropyrazolo[1,5-a]pyrimidine-3-carboxamide], under setting [1], the Ki lay within 10 to 1000 nM.

With `Nc1nn2cc(Cl)cnc2c1C(=O)Nc1cnccc1OC1CCOCC1` [I-O-61, 2-amino-6-chloro-N-(4-((tetrahydro-2H-pyran-4-yl)oxy)pyridin-3-yl)pyrazolo[1,5-a]pyrimidine-3-carboxamide], the Ki under setting [1] lay in the range of 10 to 1000 nM.

As for `Cn1ccc2c(NC(=O)c3c(N)nn4cc(F)cnc34)cncc21` [I-C-74, 2-amino-6-fluoro-N-(1-methyl-1H-pyrrolo[2,3-c]pyridin-4-yl)pyrazolo[1,5-a]pyrimidine-3-carboxamide], the Ki under setting [1] lay in the range of 10 to 1000 nM.

Take `CC(C)(C)N1CCN(c2ccncc2NC(=O)c2c(N)nn3cc(Cl)cnc23)CC1` [I-N-34, 2-amino-N-(4-(4-(tert-butyl)piperazin-1-yl)pyridin-3-yl)-6-chloropyrazolo[1,5-a]pyrimidine-3-carboxamide]: the Ki lay within 1000 to 5000 nM.

For `CS(=O)(=O)C1CCN(c2ccncc2NC(=O)c2c(N)nn3cc(F)cnc23)CC1` [I-N-190, 2-amino-6-fluoro-N-(4-(4-(methylsulfonyl)piperidin-1-yl)pyridin-3-yl)pyrazolo[1,5-a]pyrimidine-3-carboxamide], the Ki under setting [1] is 10 to 1000 nM.

In the case of `COc1ccncc1NC(=O)c1c(N)nn2cc(CC#N)cnc12` [I-O-26, 2-amino-6-(cyanomethyl)-N-(4-methoxypyridin-3-yl)pyrazolo[1,5-a]pyrimidine-3-carboxamide], the Ki under setting [1] was less than 10 nM.

Turning to `CN1CCOC[C@@H]1c1ccc(-c2ccncc2NC(=O)c2c(N)nn3cc(F)cnc23)cc1` [I-C-66, (S)-2-amino-6-fluoro-N-(4-(4-(4-methylmorpholin-3-yl)phenyl)pyridin-3-yl)pyrazolo[1,5-a]pyrimidine-3-carboxamide], under setting [1], the Ki was 10 to 1000 nM.

As to `N#CCc1cnc2c(C(=O)Nc3cnccc3OC3CCCOC3)c(N)nn2c1` (stereo not drawn) [I-O-41, 2-amino-6-(cyanomethyl)-N-(4-((tetrahydro-2H-pyran-3-yl)oxy)pyridin-3-yl)pyrazolo[1,5-a]pyrimidine-3-carboxamide], under setting [1], the Ki was less than 10 nM.

For the molecule `Nc1nn2cc(F)cnc2c1C(=O)Nc1cnccc1N1CCC(C(=O)N2CCC2)CC1` [I-G-77, 2-amino-N-(4-(4-(azetidine-1-carbonyl)piperidin-1-yl)pyridin-3-yl)-6-fluoropyrazolo[1,5-a]pyrimidine-3-carboxamide], the Ki under setting [1] fell in the range of 10 to 1000 nM.

On to `Nc1nn2cc(F)cnc2c1C(=O)Nc1cnccc1OC1CCOC1` (racemic) [I-O-15, (R,S)-2-amino-6-fluoro-N-(4-((tetrahydrofuran-3-yl)oxy)pyridin-3-yl)pyrazolo[1,5-a]pyrimidine-3-carboxamide], for which the Ki under setting [1] fell in the range of 10 to 1000 nM.

With `Nc1nn2cc(F)cnc2c1C(=O)Nc1cnccc1-c1ccc(C(=O)N2CCNCC2)cc1` [I-C-44, 2-amino-6-fluoro-N-(4-(4-(piperazine-1-carbonyl)phenyl)pyridin-3-yl)pyrazolo[1,5-a]pyrimidine-3-carboxamide], the Ki under setting [1] fell in the range of 10 to 1000 nM.

For `Nc1nn2cc(F)cnc2c1C(=O)Nc1cnccc1N1CCC(C(=O)N2CCCC2)CC1` [I-G-83, 2-amino-6-fluoro-N-(4-(4-(pyrrolidine-1-carbonyl)piperidin-1-yl)pyridin-3-yl)pyrazolo[1,5-a]pyrimidine-3-carboxamide], under setting [1], the Ki is 10 to 1000 nM.

Regarding `CN(C)CCc1cnn(-c2ccncc2NC(=O)c2c(N)nn3cc(F)cnc23)c1` [I-N-9, 2-amino-N-(4-(4-(2-(dimethylamino)ethyl)-1H-pyrazol-1-yl)pyridin-3-yl)-6-fluoropyrazolo[1,5-a]pyrimidine-3-carboxamide], the Ki lay within 1000 to 5000 nM.

For the molecule `Nc1nn2cc(F)cnc2c1C(=O)Nc1cncc(F)c1N1CCC(C(=O)N2CCN3CCC2C3)CC1` (stereo not drawn) [I-G-46, N-(4-(4-(1,4-diazabicyclo[3.2.1]octane-4-carbonyl)piperidin-1-yl)-5-fluoropyridin-3-yl)-2-amino-6-fluoropyrazolo[1,5-a]pyrimidine-3-carboxamide], the Ki was 1000 to 5000 nM.

For the molecule `CC(C)N1CCC(C(=O)N2CCN(c3c(F)cncc3NC(=O)c3c(N)nn4cc(F)cnc34)CC2)C1` (stereo not drawn) [I-N-206, 2-amino-6-fluoro-N-(5-fluoro-4-(4-(1-isopropylpyrrolidine-3-carbonyl)piperazin-1-yl)pyridin-3-yl)pyrazolo[1,5-a]pyrimidine-3-carboxamide], the Ki under setting [1] lay within 10 to 1000 nM.

Turning to `Nc1nn2cc(F)cnc2c1C(=O)Nc1cncc(F)c1C1=CCN(C2COC2)CC1` [I-C-12, 2-amino-6-fluoro-N-(5-fluoro-1′-(oxetan-3-yl)-1′,2′,3′,6′-tetrahydro-[4,4′-bipyridin]-3-yl)pyrazolo[1,5-a]pyrimidine-3-carboxamide], the Ki under setting [1] was in the range of 10 to 1000 nM.

Consider `Nc1nn2cc(F)cnc2c1C(=O)Nc1cncc(F)c1N1CCCC1` [I-N-246, 2-amino-6-fluoro-N-(5-fluoro-4-(pyrrolidin-1-yl)pyridin-3-yl)pyrazolo[1,5-a]pyrimidine-3-carboxamide], for which the Ki under setting [1] lay within 10 to 1000 nM.

Turning to `COC(=O)C1CCN(c2ccncc2NC(=O)c2c(N)nn3cc(Cl)cnc23)CC1` [I-N-74, methyl-1-(3-(2-amino-6-chloropyrazolo[1,5-a]pyrimidine-3-carboxamido)pyridin-4-yl)piperidine-4-carboxylate], the Ki under setting [1] fell in the range of 10 to 1000 nM.

As for `CN(C)CCOc1ccncc1NC(=O)c1c(N)nn2cc(Cl)cnc12` [I-O-48, 2-amino-6-chloro-N-(4-(2-(dimethylamino)ethoxy)pyridin-3-yl)pyrazolo[1,5-a]pyrimidine-3-carboxamide], the Ki under setting [1] fell in the range of 10 to 1000 nM.

Regarding `Nc1nn2cc(F)cnc2c1C(=O)Nc1cnccc1-c1ccc(C(=O)N2CCC(N3CCCC3)CC2)nc1` [I-C-53, 2-amino-6-fluoro-N-(6-(4-(pyrrolidin-1-yl)piperidine-1-carbonyl)-[3,4′-bipyridin]-3′-yl)pyrazolo[1,5-a]pyrimidine-3-carboxamide], the Ki under setting [1] was in the range of 10 to 1000 nM.

As to `C[C@H]1CN(C2COC2)CCN1c1ccncc1NC(=O)c1c(N)nn2cc(F)cnc12` [I-N-24, (S)-2-amino-6-fluoro-N-(4-(2-methyl-4-(oxetan-3-yl)piperazin-1-yl)pyridin-3-yl)pyrazolo[1,5-a]pyrimidine-3-carboxamide], the Ki under setting [1] fell in the range of 10 to 1000 nM.

As for `Cn1nncc1-c1ccncc1NC(=O)c1c(N)nn2cc(F)cnc12` [I-C-72, 2-amino-6-fluoro-N-(4-(1-methyl-1H-1,2,3-triazol-5-yl)pyridin-3-yl)pyrazolo[1,5-a]pyrimidine-3-carboxamide], under setting [1], the Ki was 10 to 1000 nM.

Regarding `COc1cncc(NC(=O)c2c(N)nn3cc(F)cnc23)c1-c1cncn1C` [I-C-81, 2-amino-6-fluoro-N-(5-methoxy-4-(1-methyl-1H-imidazol-5-yl)pyridin-3-yl)pyrazolo[1,5-a]pyrimidine-3-carboxamide], the Ki under setting [1] was less than 10 nM.

As for `Nc1nn2cc(Cl)cnc2c1C(=O)Nc1cnccc1N1CCn2cncc2C1` [I-N-75, 2-amino-6-chloro-N-(4-(5,6-dihydroimidazo[1,5-a]pyrazin-7(8H)-yl)pyridin-3-yl)pyrazolo[1,5-a]pyrimidine-3-carboxamide], the Ki under setting [1] was 10 to 1000 nM.

`N#CCc1cnc2c(C(=O)Nc3cnccc3N3CCC(O)CC3)c(N)nn2c1` [I-N-83, 2-amino-6-(cyanomethyl)-N-(4-(4-hydroxypiperidin-1-yl)pyridin-3-yl)pyrazolo[1,5-a]pyrimidine-3-carboxamide]: under setting [1], the Ki is less than 10 nM.

Turning to `Cc1nc(C(F)(F)F)cn1-c1ccncc1NC(=O)c1c(N)nn2cc(F)cnc12` [I-N-30, 2-amino-6-fluoro-N-(4-(2-methyl-4-(trifluoromethyl)-1H-imidazol-1-yl)pyridin-3-yl)pyrazolo[1,5-a]pyrimidine-3-carboxamide], the Ki under setting [1] fell in the range of 10 to 1000 nM.

Turning to `CC1(O)CCN(c2ccncc2NC(=O)c2c(N)nn3cc(Cl)cnc23)CC1` [I-N-66, 2-amino-6-chloro-N-(4-(4-hydroxy-4-methylpiperidin-1-yl)pyridin-3-yl)pyrazolo[1,5-a]pyrimidine-3-carboxamide], under setting [1], the Ki lay in the range of 10 to 1000 nM.

As for `C[N+]1([O-])CCN(C(=O)C2CCN(c3c(F)cncc3NC(=O)c3c(N)nn4cc(F)cnc34)CC2)CC1` [I-G-95, 4-(1-(3-(2-amino-6-fluoropyrazolo[1,5-a]pyrimidine-3-carboxamido)-5-fluoropyridin-4-yl)piperidine-4-carbonyl)-1-methylpiperazine 1-oxide], the Ki is 10 to 1000 nM.

For `CC1(N2CCN(c3ccncc3NC(=O)c3c(N)nn4cc(Cl)cnc34)CC2)COC1` [I-N-25, 2-amino-6-chloro-N-(4-(4-(3-methyloxetan-3-yl)piperazin-1-yl)pyridin-3-yl)pyrazolo[1,5-a]pyrimidine-3-carboxamide], the Ki under setting [1] lay in the range of 10 to 1000 nM.

For `Nc1nn2cc(Cl)cnc2c1C(=O)Nc1cnccc1O[C@H]1C[C@]2(CCN2)C1` [I-O-78, N-(4-((4s,6r)-1-azaspiro[3.3]heptan-6-yloxy)pyridin-3-yl)-2-amino-6-chloropyrazolo[1,5-a]pyrimidine-3-carboxamide], the Ki under setting [1] lay within 10 to 1000 nM.

Consider `Cc1cccnc1-c1ccncc1NC(=O)c1c(N)nn2cc(F)cnc12` [I-C-36, 2-amino-6-fluoro-N-(3-methyl-[2,4′-bipyridin]-3′-yl)pyrazolo[1,5-a]pyrimidine-3-carboxamide], for which, under setting [1], the Ki is 10 to 1000 nM.

Consider `Nc1nn2cc(F)cnc2c1C(=O)Nc1cnccc1N1CCN(C2CC2)CC1` [I-N-33, 2-amino-N-(4-(4-cyclopropylpiperazin-1-yl)pyridin-3-yl)-6-fluoropyrazolo[1,5-a]pyrimidine-3-carboxamide], for which, under setting [1], the Ki lay within 10 to 1000 nM.

Take `Cn1ccc(-c2ccncc2NC(=O)c2c(N)nn3cc(F)cnc23)n1` [I-C-68, 2-amino-6-fluoro-N-(4-(1-methyl-1H-pyrazol-3-yl)pyridin-3-yl)pyrazolo[1,5-a]pyrimidine-3-carboxamide]: under setting [1], the Ki was 10 to 1000 nM.
